*1 amine or outer side, *2 acyl side, *3 side chain or, on linkers, in order; H or OH if unused. Where a SMILES comes first, the peptide text is derived from it. Side-chain parts run from the residue outwards. [ ]: non-standard residue; d: D form. The star is where a group is joined. C20 diacid = O=C(O)CCCCCCCCCCCCCCCCCCC(=O)*; C18 diacid = O=C(O)CCCCCCCCCCCCCCCCC(=O)*; αMePhe(2-F) = C[C@](N)(Cc1ccccc1F)C(=O)O; γGlu = O=C(O)[C@H](CCC(=O)[*:2])N[*:1]; 4Pal = N[C@@H](Cc1ccncc1)C(=O)O; αMeL = CC(C)C[C@](C)(N)C(=O)O; Iva = CC[C@](C)(N)C(=O)O; Orn = NCCC[C@H](N)C(=O)O; AEEA = NCCOCCOCC(=O)O; Aib = CC(C)(N)C(=O)O
Tests used:
Assay in all cases: cAMP functional assay (HTRF) in HEK293 cells in presence of 0.1% casein
Format in all cases: cell-based
[1] = target: T1, human glucose-dependent insulinotropic peptide receptor (GIPR) (Homo sapiens, UniProt P48546); conditions: HEK293 cells expressing human GIPR, geometric mean, read-out: hGIPR cAMP Rel EC50 nM (SEM, n)
T1 construct: expressed in transfected cells; host or cells: HEK293
T1 sequence (P48546 22-466): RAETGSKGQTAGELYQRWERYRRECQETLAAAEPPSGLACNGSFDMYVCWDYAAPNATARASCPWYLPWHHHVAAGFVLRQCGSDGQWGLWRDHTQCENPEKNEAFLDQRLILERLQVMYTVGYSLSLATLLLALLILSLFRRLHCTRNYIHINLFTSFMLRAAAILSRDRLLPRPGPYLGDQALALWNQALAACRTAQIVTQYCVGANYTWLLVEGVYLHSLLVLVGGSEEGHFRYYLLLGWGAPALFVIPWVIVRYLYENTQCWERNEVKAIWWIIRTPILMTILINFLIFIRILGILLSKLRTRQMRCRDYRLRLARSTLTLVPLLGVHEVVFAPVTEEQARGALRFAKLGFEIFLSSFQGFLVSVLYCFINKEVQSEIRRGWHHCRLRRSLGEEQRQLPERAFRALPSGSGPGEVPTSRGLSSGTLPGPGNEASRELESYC

[2] = target: T2, human GLP-1 receptor (GLP-1R) (Homo sapiens, UniProt P43220); conditions: HEK293 cells expressing human GLP-1R, geometric mean, read-out: hGLP1R cAMP Rel EC50 nM (SEM, n)
T2 construct: expressed in transfected cells; host or cells: HEK293
T2 sequence (P43220 24-463): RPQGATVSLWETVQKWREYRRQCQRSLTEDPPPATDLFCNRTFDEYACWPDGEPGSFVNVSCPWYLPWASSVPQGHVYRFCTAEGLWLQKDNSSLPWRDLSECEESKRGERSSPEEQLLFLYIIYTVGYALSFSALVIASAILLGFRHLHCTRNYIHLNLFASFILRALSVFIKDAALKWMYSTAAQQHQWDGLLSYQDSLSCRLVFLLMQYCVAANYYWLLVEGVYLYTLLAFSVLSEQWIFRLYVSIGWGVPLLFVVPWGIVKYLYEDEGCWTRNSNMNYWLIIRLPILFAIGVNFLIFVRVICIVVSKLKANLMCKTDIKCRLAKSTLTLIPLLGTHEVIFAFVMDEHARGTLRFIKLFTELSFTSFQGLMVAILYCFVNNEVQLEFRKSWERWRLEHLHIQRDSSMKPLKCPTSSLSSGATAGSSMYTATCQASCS

[3] = target: T3, human glucagon receptor (GcgR) (Homo sapiens, UniProt P47871); conditions: HEK293 cells expressing human GcgR, geometric mean, read-out: hGcgR cAMP Rel EC50 nM (SEM, n)
T3 construct: expressed in transfected cells; host or cells: HEK293
T3 sequence (P47871 26-477): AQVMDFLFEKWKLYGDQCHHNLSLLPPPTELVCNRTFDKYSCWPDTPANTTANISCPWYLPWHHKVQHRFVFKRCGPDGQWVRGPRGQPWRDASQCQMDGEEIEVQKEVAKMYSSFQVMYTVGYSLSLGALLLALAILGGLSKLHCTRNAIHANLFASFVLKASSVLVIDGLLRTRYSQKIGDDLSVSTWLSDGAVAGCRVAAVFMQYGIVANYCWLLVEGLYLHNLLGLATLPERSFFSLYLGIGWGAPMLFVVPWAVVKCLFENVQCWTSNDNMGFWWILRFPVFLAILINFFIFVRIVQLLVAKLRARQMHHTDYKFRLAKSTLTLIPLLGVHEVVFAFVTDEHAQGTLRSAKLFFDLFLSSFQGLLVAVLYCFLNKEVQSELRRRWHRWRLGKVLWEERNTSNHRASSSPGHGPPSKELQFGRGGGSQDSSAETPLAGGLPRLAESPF

Structure (SMILES)	EC50 [1]	EC50 [2]	EC50 [3]
CC[C@H](C)[C@H](NC(=O)[C@H](CO)NC(=O)[C@H](Cc1ccc(O)cc1)NC(=O)[C@H](CC(=O)O)NC(=O)[C@H](CO)NC(=O)[C@@H](NC(=O)[C@H](Cc1ccccc1)NC(=O)[C@@H](NC(=O)CNC(=O)[C@H](CCC(=O)O)NC(=O)C(C)(C)NC(=O)[C@@H](N)Cc1ccc(O)cc1)[C@@H](C)O)[C@@H](C)CC)C(=O)N[C@@H](CC(C)C)C(=O)N[C@@H](CC(C)C)C(=O)N[C@@H](CC(=O)O)C(=O)N[C@@H](CCCCN)C(=O)N[C@@H](CCCCNC(=O)COCCOCCNC(=O)COCCOCCNC(=O)CC[C@H](NC(=O)CCCCCCCCCCCCCCCCCCC(=O)O)C(=O)O)C(=O)N[C@@H](C)C(=O)N[C@@H](CCC(N)=O)C(=O)NC(C)(C)C(=O)N[C@@H](CC(=O)O)C(=O)N[C@@H](Cc1ccccc1)C(=O)N[C@H](C(=O)N[C@@H](CC(N)=O)C(=O)N[C@@H](Cc1c[nH]c2ccccc12)C(=O)N[C@@H](CC(C)C)C(=O)N[C@@H](CC(C)C)C(=O)N[C@@H](C)C(=O)N[C@@H](CCC(N)=O)C(=O)NCC(=O)N1CCC[C@H]1C(=O)N[C@@H](CO)C(=O)N[C@@H](CO)C(=O)NCC(=O)N[C@@H](C)C(=O)N1CCC[C@H]1C(=O)N1CCC[C@H]1C(=O)N1CCC[C@H]1C(=O)N[C@@H](CO)C(N)=O)C(C)C [Example 8] (H-Y[Aib]EGTFISDYSILLDKK([AEEA-AEEA-γGlu-C20 diacid])AQ[Aib]DFVNWLLAQGPSSGAPPPS-NH2)	0.0268 nM	> 5000 nM	295 nM
CC[C@H](C)[C@H](NC(=O)[C@H](CCCN)NC(=O)[C@H](CC(=O)O)NC(=O)[C@H](CC(C)C)NC(=O)[C@](C)(CC(C)C)NC(=O)[C@@H](NC(=O)[C@H](CO)NC(=O)[C@H](Cc1ccc(O)cc1)NC(=O)[C@H](CC(=O)O)NC(=O)[C@H](CO)NC(=O)[C@@H](NC(=O)[C@H](Cc1ccccc1)NC(=O)[C@@H](NC(=O)CNC(=O)[C@H](CCC(=O)O)NC(=O)C(C)(C)NC(=O)[C@@H](N)Cc1ccc(O)cc1)[C@@H](C)O)[C@@H](C)CC)[C@@H](C)CC)C(=O)N[C@@H](Cc1c[nH]cn1)C(=O)N[C@@H](CCC(N)=O)C(=O)NC(C)(C)C(=O)N[C@@H](CCC(=O)O)C(=O)N[C@@H](Cc1ccccc1)C(=O)N[C@H](C(=O)N[C@H](CCC(=O)O)C(=O)N[C@@H](Cc1ccc(O)cc1)C(=O)N[C@@H](CCCCNC(=O)COCCOCCNC(=O)COCCOCCNC(=O)CC[C@H](NC(=O)CCCCCCCCCCCCCCCCCCC(=O)O)C(=O)O)C(=O)N[C@@H](CC(C)C)C(=O)N[C@@H](CCC(=O)O)C(=O)NCC(=O)NCC(=O)N1CCC[C@H]1C(=O)N[C@@H](CO)C(=O)N[C@@H](CO)C(=O)NCC(=O)N[C@@H](C)C(=O)N1CCC[C@H]1C(=O)N1CCC[C@H]1C(=O)N1CCC[C@H]1C(=O)N[C@@H](CO)C(N)=O)C(C)C [Example 102] (H-Y[Aib]EGTFISDYSI[αMeL]LD[Orn]IHQ[Aib]EFV[dE]YK([AEEA-AEEA-γGlu-C20 diacid])LEGGPSSGAPPPS-NH2)	0.0166 nM	> 5000 nM	> 5000 nM
CC[C@H](C)[C@H](NC(=O)[C@H](CO)NC(=O)[C@H](Cc1ccc(O)cc1)NC(=O)[C@H](CC(=O)O)NC(=O)[C@H](CO)NC(=O)[C@@H](NC(=O)[C@](C)(CC)NC(=O)[C@@H](NC(=O)CNC(=O)[C@H](CCC(=O)O)NC(=O)C(C)(C)NC(=O)[C@@H](N)Cc1ccc(O)cc1)[C@@H](C)O)[C@@H](C)CC)C(=O)N[C@@](C)(CC(C)C)C(=O)N[C@@H](CC(C)C)C(=O)N[C@@H](CC(=O)O)C(=O)N[C@@H](CCCN)C(=O)N[C@@H](CCCCNC(=O)COCCOCCNC(=O)COCCOCCNC(=O)CC[C@H](NC(=O)CCCCCCCCCCCCCCCCCCC(=O)O)C(=O)O)C(=O)N[C@@H](Cc1c[nH]cn1)C(=O)N[C@@H](CCC(N)=O)C(=O)NC(C)(C)C(=O)N[C@@H](CC(=O)O)C(=O)N[C@@H](Cc1ccccc1)C(=O)N[C@H](C(=O)N[C@@H](CCC(=O)O)C(=O)N[C@@H](Cc1ccncc1)C(=O)N[C@@H](CC(C)C)C(=O)N[C@@H](CC(C)C)C(=O)N[C@@H](CCC(=O)O)C(=O)NCC(=O)NCC(=O)N1CCC[C@H]1C(=O)N[C@@H](CO)C(=O)N[C@@H](CO)C(=O)NCC(=O)N[C@@H](C)C(=O)N1CCC[C@H]1C(=O)N1CCC[C@H]1C(=O)N1CCC[C@H]1C(=O)N[C@@H](CO)C(N)=O)C(C)C [Example 76] (H-Y[Aib]EGT[Iva]ISDYSI[αMeL]LD[Orn]K([AEEA-AEEA-γGlu-C20 diacid])HQ[Aib]DFVE[4Pal]LLEGGPSSGAPPPS-NH2)	0.0154 nM	> 5000 nM	1200 nM
CC[C@H](C)[C@H](NC(=O)[C@H](CCCN)NC(=O)[C@H](CC(=O)O)NC(=O)[C@H](CC(C)C)NC(=O)[C@](C)(CC(C)C)NC(=O)[C@@H](NC(=O)[C@H](CO)NC(=O)[C@H](Cc1ccc(O)cc1)NC(=O)[C@H](CC(=O)O)NC(=O)[C@H](CO)NC(=O)[C@@H](NC(=O)[C@H](Cc1ccccc1)NC(=O)[C@@H](NC(=O)CNC(=O)[C@H](CCC(=O)O)NC(=O)C(C)(C)NC(=O)[C@@H](N)Cc1ccc(O)cc1)[C@@H](C)O)[C@@H](C)CC)[C@@H](C)CC)C(=O)N[C@@H](CCCNC(=N)N)C(=O)N[C@@H](CCC(N)=O)C(=O)NC(C)(C)C(=O)N[C@@H](CC(=O)O)C(=O)N[C@@H](Cc1ccccc1)C(=O)N[C@H](C(=O)N[C@@H](CCC(=O)O)C(=O)N[C@@H](Cc1ccc(O)cc1)C(=O)N[C@@H](CCCCNC(=O)COCCOCCNC(=O)COCCOCCNC(=O)CC[C@H](NC(=O)CCCCCCCCCCCCCCCCCCC(=O)O)C(=O)O)C(=O)N[C@@H](CC(C)C)C(=O)N[C@@H](CCC(=O)O)C(=O)NCC(=O)NCC(=O)N1CCC[C@H]1C(=O)N[C@@H](CO)C(=O)N[C@@H](CO)C(=O)NCC(=O)N[C@@H](C)C(=O)N1CCC[C@H]1C(=O)N1CCC[C@H]1C(=O)N1CCC[C@H]1C(=O)N[C@@H](CO)C(N)=O)C(C)C [Example 116] (H-Y[Aib]EGTFISDYSI[αMeL]LD[Orn]IRQ[Aib]DFVEYK([AEEA-AEEA-γGlu-C20 diacid])LEGGPSSGAPPPS-NH2)	0.028 nM	> 5000 nM	> 5000 nM
CC[C@H](C)[C@H](NC(=O)[C@H](CO)NC(=O)[C@H](Cc1ccc(O)cc1)NC(=O)[C@H](CC(=O)O)NC(=O)[C@H](CO)NC(=O)[C@@H](NC(=O)[C@](C)(Cc1ccccc1F)NC(=O)[C@@H](NC(=O)CNC(=O)[C@H](CCC(=O)O)NC(=O)C(C)(C)NC(=O)[C@@H](N)Cc1ccc(O)cc1)[C@@H](C)O)[C@@H](C)CC)C(=O)N[C@@H](C)C(=O)N[C@@H](CC(C)C)C(=O)N[C@@H](CC(=O)O)C(=O)N[C@@H](CCCCN)C(=O)N[C@H](C(=O)N[C@@H](Cc1c[nH]cn1)C(=O)N[C@@H](CCC(N)=O)C(=O)NC(C)(C)C(=O)N[C@@H](CC(=O)O)C(=O)N[C@@H](Cc1ccccc1)C(=O)N[C@H](C(=O)N[C@@H](CCC(=O)O)C(=O)N[C@@H](Cc1ccc(O)cc1)C(=O)N[C@@H](CCCCNC(=O)COCCOCCNC(=O)COCCOCCNC(=O)CC[C@H](NC(=O)CCCCCCCCCCCCCCCCCCC(=O)O)C(=O)O)C(=O)N[C@@H](CC(C)C)C(=O)N[C@@H](CCC(=O)O)C(=O)NCC(=O)NCC(=O)N1CCC[C@H]1C(=O)N[C@@H](CO)C(=O)N[C@@H](CO)C(=O)NCC(=O)N[C@@H](C)C(=O)N1CCC[C@H]1C(=O)N1CCC[C@H]1C(=O)N1CCC[C@H]1C(=O)N[C@@H](CO)C(N)=O)C(C)C)[C@@H](C)CC [Example 99] (H-Y[Aib]EGT[αMePhe(2-F)]ISDYSIALDKIHQ[Aib]DFVEYK([AEEA-AEEA-γGlu-C20 diacid])LEGGPSSGAPPPS-NH2)	0.00454 nM	> 5000 nM	> 5000 nM
CC[C@H](C)[C@H](NC(=O)[C@H](CO)NC(=O)[C@H](Cc1ccc(O)cc1)NC(=O)[C@H](CC(=O)O)NC(=O)[C@H](CO)NC(=O)[C@@H](NC(=O)[C@H](Cc1ccccc1)NC(=O)[C@@H](NC(=O)CNC(=O)[C@H](CCC(=O)O)NC(=O)[C@@H](C)NC(=O)[C@@H](N)Cc1ccc(O)cc1)[C@@H](C)O)[C@@H](C)CC)C(=O)N[C@@H](CC(C)C)C(=O)N[C@@H](CC(C)C)C(=O)N[C@@H](CC(=O)O)C(=O)N[C@@H](CCCCN)C(=O)N[C@@H](CCCCNC(=O)COCCOCCNC(=O)COCCOCCNC(=O)CC[C@H](NC(=O)CCCCCCCCCCCCCCCCC(=O)O)C(=O)O)C(=O)N[C@@H](C)C(=O)N[C@@H](CCC(N)=O)C(=O)NC(C)(C)C(=O)N[C@@H](CC(=O)O)C(=O)N[C@@H](Cc1ccccc1)C(=O)N[C@H](C(=O)N[C@@H](CCC(=O)O)C(=O)N[C@@H](Cc1c[nH]c2ccccc12)C(=O)N[C@@H](CC(C)C)C(=O)N[C@@H](CC(C)C)C(=O)N[C@@H](C)C(=O)N[C@@H](CCC(N)=O)C(=O)NCC(=O)N1CCC[C@H]1C(=O)N[C@@H](CO)C(=O)N[C@@H](CO)C(=O)NCC(=O)N[C@@H](C)C(=O)N1CCC[C@H]1C(=O)N1CCC[C@H]1C(=O)N1CCC[C@H]1C(=O)N[C@@H](CO)C(N)=O)C(C)C [Example 16] (H-Y[dA]EGTFISDYSILLDKK([AEEA-AEEA-γGlu-C18 diacid])AQ[Aib]DFVEWLLAQGPSSGAPPPS-NH2)	0.00937 nM	> 5000 nM	> 5000 nM

— US12723063B2, “GIPR-agonist compounds” (Eli Lilly and Company, priority 2019, dated 2026)
